Assay [1] concerns the target T1, lipid-sensing receptor (LSR; TtgR-PPARα) (UniProt Q07869+Q9AIU0).
T1 construct: TtgR (phloretin-responsive repressor of Pseudomonas putida DOT-T1E); expressed in transfected cells; host or cells: HT-1080 (A1, A5; in A5 microencapsulated and implanted into mice); several rodent, primate and human cell lines (A2)
T1 sequence (Q9AIU0+Q07869 with tags, fused parts or gaps): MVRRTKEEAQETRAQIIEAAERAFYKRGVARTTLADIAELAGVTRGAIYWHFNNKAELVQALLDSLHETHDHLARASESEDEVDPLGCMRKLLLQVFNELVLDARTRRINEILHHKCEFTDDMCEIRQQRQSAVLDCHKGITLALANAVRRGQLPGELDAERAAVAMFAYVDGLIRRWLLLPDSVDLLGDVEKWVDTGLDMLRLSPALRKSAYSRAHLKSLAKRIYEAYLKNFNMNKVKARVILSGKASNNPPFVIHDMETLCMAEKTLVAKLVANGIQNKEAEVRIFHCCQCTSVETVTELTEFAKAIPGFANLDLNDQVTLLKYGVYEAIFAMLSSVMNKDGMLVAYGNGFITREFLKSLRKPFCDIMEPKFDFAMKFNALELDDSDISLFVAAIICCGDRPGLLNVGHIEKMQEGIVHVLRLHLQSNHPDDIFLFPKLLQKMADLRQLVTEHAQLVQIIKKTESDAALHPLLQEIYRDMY
Kind of assay: Fatty acid/fibrate-controlled SEAP expression in pKR135/pMG10-transgenic HT-1080. The note with it: for sensitivity of LSR (SEAP expression): pKR135/pMG10-transgenic HT-1080, 48 h, FIG. 3d,e. Format: cell-based, human. As to the method: Wild-type Chinese hamster ovary cells (CHO-K1, ATCC: CCL-61) were cultured in ChoMaster® HTS (Cell Culture Technologies GmbH, Gravesano, Switzerland) containing 1% penicillin/streptomycin. All cell types were cultivated at 37° C. in a humidified atmosphere containing 5% CO2. […] After transfection, all cells were cultivated in their specific media containing different inducer concentrations and reporter protein levels were profiled after 48 h unless stated otherwise. […]

The target in assay [2] is T1, lipid-sensing receptor (LSR; TtgR-PPARα). Kind of assay: Linoleic acid-induced SEAP expression in different cell lines cotransfected with pKR135/pMG10. The note with it: several rodent, primate and human cell lines, 48 h, FIG. 2. The class given is cell-based. On the procedure:
Linoleic acid-induced SEAP expression in different cell lines. Cells were cotransfected with the LSR-encoding expression vector (pKR135; PhCMV-LSR-pA) and the PTtgR1-driven SEAP expression plasmid (pMG10; […]), grown in the presence of different linoleic acid (LA) concentrations, and SEAP levels were profiled in the culture supernatant after 48 h.
(§1) Human embryonic kidney cells (HEK-293T, ATCC: CRL-11268), Baby hamster kidney cells (BHK-21, ATCC: CCL-10), African green monkey kidney cells (COS-7, ATCC: CRL-1651), human cervical adenocarcinoma cells (HeLa, ATCC: CCL-2), human fibrosarcoma cells (HT-1080, ATCC: CCL-121) and immortalized human mesenchymal stem cells (hMSC) (Simonsen, J. L. et al., Nat Biotechnol 20, 592-596 (2002)) were cultivated in Dulbecco's modified Eagle's medium (DMEM; Invitrogen, Basel, Switzerland) supplemented with 1% (v/v) penicillin/streptomycin solution (Sigma-Aldrich, Munich, Germany). […]
(§2) Production of the human placental secreted alkaline phosphatase (SEAP) in culture was quantified according to a p-nitrophenylphosphate-based time course of light absorbance (Schlatter S. et al., Gene 282, 19-31 (2002)). Serum levels of SEAP were quantified using a chemiluminescence-based assay (Roche Diagnostics GmbH, Mannheim, Germany).

The next assay concerns the target T2, TtgA1 (TtgR-VP16) (Pseudomonas putida, UniProt Q9AIU0).
T2 construct: expressed in transfected cells; host or cells: HT-1080
Put plainly: Phloretin-responsive gene switch (pMG10/pMG11) in HT-1080 exposed to linoleic acid. Format: cell-based. The following applies: HT-1080 pMG10/pMG11, 48 h, FIG. 6. As to the method:
HT-1080 were cotransfected with the components encoding the phloretin-responsive gene switch (pMG10, (PTtgR1-SEAP-pA) and pMG11, (PSV40-TtgA1-pA)) and grown for 48 h in the presence of increasing linoleic acid (LA) concentrations before SEAP was profiled in the cell culture supernatant.
as §1, with “Germany). Wild-type Chinese hamster ovary cells (CHO-K1, ATCC: CCL-61) were cultured in ChoMaster® HTS (Cell Culture Technologies GmbH, Gravesano, Switzerland) containing 1% penicillin/streptomycin.” for “Germany).”
as §2

In another assay the target is T3, LSR sensor device (UniProt Q07869+Q9AIU0).
T3 construct: TtgR (phloretin-responsive repressor of Pseudomonas putida DOT-T1E); expressed in transfected cells; host or cells: HT-1080 (A1, A5; in A5 microencapsulated and implanted into mice); several rodent, primate and human cell lines (A2)
T3 sequence (Q9AIU0+Q07869 with tags, fused parts or gaps): T1 sequence (Q9AIU0+Q07869 with tags, fused parts or gaps)
Put plainly: Serum SEAP in wild type mice implanted with microencapsulated pKR135/pMG10-transgenic HT-1080. The following applies: wild type mice on standard diet, 48 h, FIG. 4a,b. Format: in vivo. The text has this: (a-d) Standard low fat-fed wild type mice were implanted with microencapsulated pKR135-/pMG10-transgenic HT-1080 (2×10^6 cells/mouse) and received different doses of linoleic acid (LA) and palmitic acid (PA) (fatty acids, FA) (a), rapeseed oil (RO) (b) or were put on standard low fat (LF, 5 kcal % fat), medium fat (MF, 10 kcal % fat) and high fat (HF, 60 kcal % fat) diets (D) (c, d). Resulting blood SEAP (bSEAP) levels (a, b, d) and blood fat levels (BF) represented by serum cholesterol (C) and phospholipid (PL) concentrations (c) were quantified after 48 h (a, b, d) or 72 h (c). Data are mean±SEM, statistics by two-tailed t test; n=8 mice. *P<0.05, **P<0.005, ***P<0.0001 vs. zero lipid doses (a,b) or LF mice (c,d).
Production of the human placental secreted alkaline phosphatase (SEAP) in culture was quantified according to a p-nitrophenylphosphate-based time course of light absorbance (Schlatter S. et al., Gene 282, 19-31 (2002)). Serum levels of SEAP were quantified using a chemiluminescence-based assay (Roche Diagnostics GmbH, Mannheim, Germany). […]

Regarding `Cc1cccc(Nc2cc(Cl)nc(SCC(=O)O)n2)c1C` [WY-14643], the “sensitivity of LSR (SEAP expression)” value in assay [1] is listed as “sensitive”.

Consider `CCCCC/C=C\C/C=C\C/C=C\C/C=C\CCCC(=O)O` [arachidonic acid], for which the “sensitivity of LSR (SEAP expression)” value in assay [1] is “sensitive”.

Turning to `Cc1ccc(C)c(OCCCC(C)(C)C(=O)O)c1` [gemfibrozil], in assay [1], the “sensitivity of LSR (SEAP expression)” value is on record as “sensitive”.

Turning to `CCCCCCCCCCCC(=O)O` [lauric acid], the “sensitivity of LSR (SEAP expression)” value in assay [1] is on record as “sensitive”.

With `CCCCC/C=C\C/C=C\CCCCCCCC(=O)O` [linoleic acid], the “sensitivity of LSR (SEAP expression)” value in assay [1] was “sensitive”. The SEAP induction result in assay [2] is on record as “SEAP was exclusively induced”. Moreover, on TtgA1 (TtgR-VP16), the “sensitivity of the phloretin-responsive control element (SEAP)” value is “Insensitivity”. Also, the SEAP in serum result on LSR sensor device was “significant dose-dependent increase”.

Consider `CCCCCCCCCCCCCC(=O)O` [myristic acid], for which the “sensitivity of LSR (SEAP expression)” value in assay [1] is “sensitive”.

As to `CCCCCCCC/C=C\CCCCCCCC(=O)O` [oleic acid], the “sensitivity of LSR (SEAP expression)” value in assay [1] is “sensitive”.

For the compound `CCCCCCCCCCCCCCCC(=O)O` [palmitic acid], in assay [1], the “sensitivity of LSR (SEAP expression)” value was “sensitive”. For the same compound, the SEAP in serum entry at LSR sensor device is given as “significant dose-dependent increase”.

In the case of `O=C(CCc1ccc(O)cc1)c1c(O)cc(O)cc1O` [phloretin], the “phloretin-triggered effect on fatty acid-induced transgene (SEAP) expression” value in assay [1] (HT-1080 induced by 100 μM linoleic acid, 48 h, FIG. 3c) was “shut down transgene expression”.

In the case of `CCCCCCCCCCCCCCCCCC(=O)O` [stearic acid], the “sensitivity of LSR (SEAP expression)” value in assay [1] is listed as “sensitive”.

Values taken from US10415054B2, “Designer circuit controlling diet-induced obesity” (ETH ZURICH, priority 2013, dated 2019).
